Laboratory results: patent publication US20160235866A1, “MRI CONTRAST AGENTS FOR CELL LABELING” (THE GOVERNING COUNCIL OF THE UNIVERSITY OF TORONTO, priority 2013, published 2016)
Entries after “also recorded” stand apart in the source; their conditions may differ.

Assays:
[1] = system: MDA-MB-231 breast cancer cell pellets; assay: MRI T1 and T2 time measurements of labeled cell pellets; type: cell-based, Human; details: MDA-MB-231 cell pellets after 83 μM incubation for 2 hours
Experimental: (§1) Human breast cancer cells MDA-MB-231 were grown at 37° C. with 5% CO2 in 1640-RPMI medium supplemented with 10% fetal bovine serum and 0.5% penicillin streptomycin. Contrast agents were quantified for manganese content by flame AAS prior to cell labeling. MnTCP was dissolved in ultrapure water and MnTriAMP was dissolved in DMSO to give 17 mM stock solutions. The stock solutions were added to the medium with the cells resulting in 83 μM incubation of 2-MnTriAMP or 1-MnTCP for 2 hours. The medium was removed and the cells were washed with fresh medium 5× and then were harvested by washing with PBS followed by addition of 0.05% trypsin EDTA to detach the cells. Viability was assessed directly after labeling with trypan blue exclusion test and observation of cell morphology by phase microscopy.
For MRI, cell pellets were formed by centrifugation at 440 g for 10 minutes. Subsequent MR was done with a T1-weighted 2D spin-echo image: TR=100 ms, TE=14.163 ms, 3 mm slice thickness, 0.5×0.5 mm in-plane resolution (FIG. 1).

[2] = system: Human breast cancer cells MDA-MB-231; assay: Intracellular contrast agent concentration by GFAAS of cell digests; type: cell-based; details: for Mn / Mn content per cell relative to control: GFAAS of cell digests; for Mn: 83 μM incubation for 2 hours; for Mn content per cell relative to control: control = 1
Experimental: as §1
The intracellular contrast agent concentration was determined after cell labeling by centrifugation of a known number of cells followed by removal of the supernatant and digestion of the cells by addition of 1 M nitric acid (0.5 ml) and 30 min of heating at 70° C. Then 3 ml of ultrapure water was added to the digested cells, the mixture was filtered and then quantified by graphite furnace atomic absorption spectroscopy (GFAAS) shown in Table 3.

[3] = system: Human breast cancer cells MDA-MB-231; assay: Viability by trypan blue exclusion test after cell labeling; type: cell-based; details: for Viability (%) (±SEM): 83 μM incubation, MDA-MB-231
Experimental: as §1

[4] = 0.47 T (20 MHz for 1H Larmor frequency), 37° C.; cited from earlier work

Molecule | T1 [1] [ms] | T2 [1] [ms] | Mn [2] [mM/cell] | Mn content per cell relative to control [2] | Viability (%) (±SEM) ([3]; 0 hours after 2 h treatment) | Viability (%) (±SEM) ([3]; 3 days after 2 h treatment) | cellular uptake (in words) ([2]; MDA-MB-231, compared to 1-MnTCP, from relaxation times and GFAAS data) | toxicity / cell viability after labeling (in words) ([3]; MDA-MB-231 after labeling) | relaxivity [4] [mM⁻¹ s⁻¹]
O=C(O)c1c2nc(c(C(=O)O)c3ccc([n-]3)c(C(=O)O)c3nc(c(C(=O)O)c4ccc1[n-]4)C=C3)C=C2.[Cl-].[Mn+3] [1-MnTCP, [5,10,15,20-tetrakis(carboxy)porphyrinato]manganese(III) chloride] | 1072.1 ± 28.0 | 108.1 ± 9.3 | 1.90E−13 | 33.22 | 98 ± 1 | 80 ± 6 |  |  | 
[5-carboxy-10,15,20-tris(acetoxymethylcarboxy)porphyrinato]manganese(III) [2-MnTriAMP] | 215.4 ± 12.1 | 66.7 ± 4.4 | 6.05E−13 | 105.83 | 97 ± 2 | 87 ± 6 | significant uptake; also recorded: sufficient cellular uptake and retention | without affecting the cell viability | 
MnTPPS |  |  |  |  |  |  |  |  | ~12
